Results: patent US20240109893A1, “PREPARATION AND APPLICATION METHOD OF HETEROCYCLIC COMPOUNDS AS KRAS INHIBITOR” (SHANGHAI KECHOW PHARMA, INC., priority 2020, published 2024)

Each molecule was assayed on H358 cells (assay: Cell activity experiment: activity test of H358 cells (MTT, 5 days)). Settings: 5 days incubation, absorbance 492 nm.
Assay type: cell-based
Summary of the method: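 H358 cells seeded 90 μL at 55555 cells/mL, grown 24 h, then exposed to 3-fold serial compound dilutions (final top 10000 nM, 0.5% DMSO) in triplicate for 5 days at 37° C., 5% CO2. Viability by MTT (4 h), formazan dissolved in DMSO, absorbance at 492 nm.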

| IC50 [nM] | Compound |
| --- | --- |
| 433 | C=C(F)C(=O)N1CCN(c2nc(OC[C@@]34CCCN3C[C@H](F)C4)nc3c(F)c(-c4cccc5c4CC4CC54)ncc23)C[C@@H]1CC#N (single isomer, unassigned) [Example 880] |
| 8.4 | C=C(F)C(=O)N1CCN(c2nc(OC[C@@H]3CCCN3C)nc3c(F)c(-c4cccc5c4CC4CC54)ccc23)C[C@@H]1CC#N (stereo partly drawn) [Example 872] |

Same assay, conditions: Homo sapiens, NCI-H358, 120 h, 5 days incubation, absorbance 492 nm

| IC50 [nM] | Compound |
| --- | --- |
| 80 | C=C(F)C(=O)N1CCN(c2nc(OC[C@@H]3CCCN3C)nc3c(F)c(-c4cncc5c4CCCC5)ncc23)C[C@@H]1CC#N [Example 34, 2-((S)-4-(8-fluoro-2-(((S)-1-methylpyrrolidin-2-yl)methoxy)-7-(5,6,7,8-tetrahydroisoquinolin-4-yl)pyridino[4,3-d]pyrimidin-4-yl)-1-(2-fluoroacryloyl)piperazin-2-yl)acetonitrile] |
| 8 | C=CC(=O)N1CCN(c2nc(OC[C@@H]3C[C@@H](F)CN3C)nc3cc(-c4cccc5ccc(F)c(Cl)c45)ccc23)C[C@@H]1CC#N [Example 95] |
| 20 | C=C(F)C(=O)N1CCN(c2nc(OC[C@@H]3C[C@@H](F)CN3C)nc3c(F)c(-c4cncc5cccc(Cl)c45)ccc23)C[C@@H]1CC#N [Example 161] |
| 35 | C=C(F)C(=O)N1CC[C@@H]2[C@H]1CN2c1nc(OC[C@@]23CCCN2C[C@H](F)C3)nc2c(F)c(-c3ccc(F)c4c3CCCC4)ncc12 [Example 32] |
| 80 | C=CC(=O)N1CCN(c2nc(OC[C@@H]3C[C@@H](F)CN3C)nc3cc(-c4cccc5c4CCCC5)c(Cl)cc23)C[C@@H]1CC#N [Example 467] |
| 0.11 | C=CC(=O)N1CCN(c2nc(OC[C@@]34CCCN3C[C@H](F)C4)nc3c(F)c(-c4cccc5ccc(F)c(Cl)c45)ccc23)C[C@@H]1CC#N [Example 368] |
| 24 | C=C(F)C(=O)N1CCN(c2nc(OC[C@@]34CCCN3C[C@H](F)C4)nc3nc(-c4cccc5cccc(Cl)c45)ccc23)C[C@@H]1CC#N [Example 261] |
| 5 | C=C(F)C(=O)N1CCN(c2nc(OCC34CCCN3CCC4)nc3c(F)c(-c4cncc5cccc(Cl)c45)ccc23)C[C@@H]1CC#N [Example 163, (S)-2-(4-(7-(5-chloroisoquinolin-4-yl)-8-fluoro-2-((tetrahydro-1H-pyrrolizin-7a(5H)-yl)methoxy)quinazolin-4-yl)-1-(2-fluoroacryloyl)piperazin-2-yl)acetonitrile] |
| 120 | C=C(F)C(=O)N1CCN(c2nc(OC[C@@H]3C[C@@H](F)CN3C)nc3c(F)c(-c4cncc5c4CCCC5)ncc23)C[C@@H]1CC#N [Example 36] |
| 3 | C=CC(=O)N1CCN(c2nc(OC[C@@H]3CCCN3C)nc3c(F)c(-c4cccc5ccc(F)c(Cl)c45)ccc23)C[C@@H]1CC#N [Example 359, 2-((S)-1-acryloyl-4-(7-(8-chloro-7-fluoronaphthalen-1-yl)-8-fluoro-2-(((S)-1-methylpyrrolidin-2-yl)methoxy)quinazolin-4-yl)piperazin-2-yl)acetonitrile] |
| 33 | C=C(F)C(=O)N1CCN(c2nc(OC[C@@]34CCCN3C[C@H](F)C4)nc3c(OC4CC4)c(-c4cccc5ccc(F)c(Cl)c45)c(Cl)cc23)C[C@@H]1CC#N [Example 915, 2-((2S)-4-(6-chloro-7-(8-chloro-7-fluoronaphthalen-1-yl)-8-cyclopropoxy-2-((2R,7aS)-2-fluorotetrahydro-1H-pyrrolizin-7a(5H)-ylmethoxy)quinazolin-4-yl)-1-(2-fluoroacryloyl)piperazin-2-yl)acetonitrile] |
| 160 | C=C(F)C(=O)N1CCN(c2nc(OC[C@@H]3CCCN3C)nc3c(F)c(-c4cccc5c4C4CC4C5)ncc23)C[C@@H]1CC#N (stereo partly drawn) [Example 55, 2-((2S)-4-(8-fluoro-2-(((S)-1-methylpyrrolidin-2-yl)methoxy)-7-(1,1a,6,6a-tetrahydrocyclopropa[a]inden-2-yl)pyridino[4,3-d]pyrimidin-4-yl)-1-(2-fluoroacryloyl)piperazin-2-yl)acetonitrile] |
| 20 | C=CC(=O)N1CCN(c2nc(OC[C@@H]3C[C@@H](F)CN3C)nc3cc(-c4cncc5cccc(Cl)c45)ccc23)C[C@@H]1CC#N [Example 128, 2-((S)-1-acryloyl-4-(7-(5-chloroisoquinolin-4-yl)-2-((((2S,4R)-4-fluoro-1-methylpyrrolidin-2-yl)methoxy))quinazolin-4-yl)piperazin-2-yl)acetonitrile] |
| 20 | C=CC(=O)N1CCN(c2nc(OC[C@@H]3C[C@@H](F)CN3C)nc3cc(-c4cccc5cccc(Cl)c45)ccc23)C[C@@H]1CC#N [Example 79, 2-((S)-1-acryloyl-4-(7-(8-chloronaphthalen-1-yl)-2-((((2S,4R)-4-fluoro-1-methylpyrrolidin-2-yl]methoxy))quinazolin-4-yl)piperazin-2-yl)acetonitrile] |
| 0.49 | C=CC(=O)N1CCN(c2nc(OCC34CCCN3CCC4)nc3cc(-c4cccc5ccc(F)c(Cl)c45)ccc23)C[C@@H]1CC#N [Example 97, (S)-2-(1-acryloyl-4-(7-(8-chloro-7-fluoronaphthalen-1-yl)-2-((tetrahydro-1H-pyrrolizin-7a(5H)-yl)methoxy)quinazolin-4-yl)piperazin-2-yl)acetonitrile] |
| 0.22 | C=CC(=O)N1CCN(c2nc(OC[C@@H]3CCCN3C)nc3c(F)c(-c4cccc5c4C4CC4C5)ncc23)C[C@@H]1CC#N (stereo partly drawn) [Example 52, 2-((2S)-1-acryloyl-4-(8-fluoro-2-(((S)-1-methylpyrrolidin-2-yl)methoxy)-7-(1,1a,6,6a-tetrahydrocyclopropa[a]inden-2-yl)pyridino[4,3-d]pyrimidin-4-yl)piperazin-2-yl)acetonitrile] |

| IC50 [nM] | Compound |
| --- | --- |
| 130 | C=CC(=O)N1CCN(c2nc(OC[C@@]34CCCN3C[C@H](F)C4)nc3c(F)c(-c4cccc5cccc(Cl)c45)c(Cl)cc23)C[C@@H]1CC#N [Example 510] |
| 0.71 | C=CC(=O)N1CCN(c2nc(OCC34CCCN3CCC4)nc3c(F)c(-c4cccc5c4C4CC4C5)ncc23)C[C@@H]1CC#N (stereo partly drawn) [Example 61] |
| 4.6 | C=CC(=O)N1CCN(c2nc(OC[C@@H]3C[C@@H](F)CN3C)nc3c(F)c(-c4cccc5ccc(F)c(Cl)c45)ccc23)C[C@@H]1CC#N [Example 362] |
| 850 | C=CC(=O)N1CCN(C2=C(C#N)C(OC[C@@H]3C[C@@H](F)CN3C)=NC3C=C(c4cccc5ccc(F)c(Cl)c45)C=CC23)C[C@@H]1CC#N (stereo partly drawn) [Example 625] |
| 26 | C=CC(=O)N1CC[C@@H]2[C@H]1CN2c1nc(OC[C@@H]2C[C@@H](F)CN2C)nc2c(F)c(-c3cccc4c3CCCC4)ncc12 [Example 11] |
| 55 | C=CC(=O)N1CCN(c2nc(OC[C@@H]3CCCN3C)nc3nc(-c4cccc5c4CCCC5)ccc23)C[C@@H]1CC#N [Example 77, 2-((S)-1-acryloyl-4-(2-(((S)-1-methylpyrrolidin-2-yl)methoxy)-7-(5,6,7,8-tetrahydronaphthalen-1-yl)pyridino[2,3-d]pyrimidin-4-yl)piperazin-2-yl)acetonitrile] |
| 5 | C=CC(=O)N1CCN(c2nc(OCC34CCCN3CCC4)nc3c(F)c(-c4cccc5c4CCCC5)ccc23)C[C@@H]1CC#N [Example 363, (S)-2-(1-acryloyl-4-(8-fluoro-2-((tetrahydro-1H-pyrrolizin-7a(5H)-yl)methoxy)-7-(5,6,7,8-tetrahydronaphthalene)-1-yl)quinazolin-4-ylpiperazin-2-yl)acetonitrile] |
| 37 | C=C(F)C(=O)N1CCN(c2nc(OC[C@@]34CCCN3C[C@H](F)C4)nc3c(OC4CC4)c(-c4cccc5cccc(Cl)c45)c(Cl)cc23)C[C@@H]1CC#N [Example 916] |
| 45 | C=CC(=O)N1CC[C@H]2[C@H]1CN2c1nc(OCC23CCCN2CCC3)nc2cc(-c3cccc4cccc(Cl)c34)c(Cl)cc12 [Example 471, 1-((1R,5S)-6-(6-chloro-7-(8-chloronaphthalen-1-yl)-2-((tetrahydro-1H-pyrrolizin-7a(5H)-yl)methoxy)quinazolin-4-yl)-2,6-diazabicyclo[3.2.0]hept-2-yl)prop-2-en-1-one] |
| 2.2 | C=CC(=O)N1CCN(c2nc(OCC34CCCN3CCC4)nc3c(F)c(-c4cccc5c4[C@H]4C[C@H]4C5)ncc23)C[C@@H]1CC#N [Example 63, 2-((S)-1-acryloyl-4-(8-fluoro-2-((tetrahydro-1H-pyrrolizin-7a(5H)-yl)methoxy)-7-((1aS,6aS)-1,1a,6,6a-tetrahydrocyclopropa[a]inden-2-yl)pyridino[4,3-d]pyrimidin-4-yl)piperazin-2-yl)acetonitrile] |
| 15 | C=C(F)C(=O)N1CCN(c2nc(OC[C@@H]3CCCN3C)nc3cc(-c4cccc5ccc(F)c(Cl)c45)ccc23)C[C@@H]1CC#N [Example 94, 2-((S)-4-(7-(8-chloro-7-fluoronaphthalen-1-yl)-2-(((S)-1-methylpyrrolidin-2-yl)methoxy)quinazolin-4-yl)-1-(2-fluoroacryloyl)piperazin-2-yl)acetonitrile] |
| 7 | C=C(F)C(=O)N1CCN(c2nc(OC[C@@]34CCCN3C[C@H](F)C4)nc3c(F)c(-c4cccc5c4[C@H]4C[C@H]4C5)ncc23)C[C@@H]1CC#N [Example 70] |
| 140 | C=C(F)C(=O)N1CCN(c2nc(OC[C@@H]3CCCN3C)nc3cc(-c4cccc5c4CCCC5)ccc23)C[C@@H]1CC#N [Example 111] |
| 10 | C=C(F)C(=O)N1CCN(c2nc(OCC34CCCN3CCC4)nc3c(F)c(-c4cccc5c4[C@H]4C[C@H]4C5)ncc23)C[C@@H]1CC#N [Example 64, 2-((S)-4-(8-fluoro-2-((tetrahydro-1H-pyrrolizin-7a(5H)-yl)methoxy)-7-((1aS,6aS)-1,1a,6,6a-tetrahydrocyclopropa[a]inden-2-yl)pyridino[4,3-d]pyrimidin-4-yl)-1-(2-fluoroacryloyl)piperazin-2-yl)acetonitrile] |
| 8 | C=C(F)C(=O)N1CCN(c2nc(OCC34CCCN3CCC4)nc3cc(-c4cccc5ccc(F)c(Cl)c45)ccc23)C[C@@H]1CC#N [Example 98, (S)-2-(4-(7-(8-chloro-7-fluoronaphthalen-1-yl)-2-((tetrahydro-1H-pyrrolizin-7a(5H)-yl)methoxy)quinazolin-4-yl)-1-(2-fluoroacryloyl)piperazin-2-yl)acetonitrile] |
